Measurements reported in patent publication US8242166B2, “C(10) ethyl ester and C(10) cyclopropyl ester substituted taxanes” (Florida State University Research Foundation, Inc., priority 2008, dated 2012).
Like-named read-outs stand apart in the source and are kept apart here.

What was measured:
[1] = tested on: DLD-1; experiment: MTT cytotoxicity (IC50), DLD-1; type: cell-based; details: Homo sapiens
Procedure: (§1) Compound 17932 was tested in four of these cell lines, while the remaining compounds were tested in all of these cell lines. All cell lines were maintained in RPMI-1640 tissue culture medium (TCM, supplemented with antibiotics and 10% fetal bovine serum) and cultured at 37° C. in humidified air containing 5% CO2. To assess the antiproliferative effects of the test compounds, 172 μL of tumor cell suspension (1.45×10^4 cells/ml) were added to each well of a 96-well plate and incubated for 24 h at 37° C. in 5% CO2 in air to allow cells to adhere. Seven 2-fold drug dilutions in TCM/DMSO were performed in triplicate in separate 96-well plates and 28 μL was transferred to the wells containing tumor cells (200 μL final volume/0.1% DMSO). Plates were incubated for 72 h and cell viability was determined by adding 50 μL of warm TCM containing 5 mg/mL MTT (3-[4,5-dimethylthiazol-2-yl]-2,5-diphenyltetrazolium bromide) to each well and incubating for 1 h at 37° C. Plates were processed and the absorbances of the resulting solutions were measured by a plate reader at 570 nm. […] (GraphPad Prism version 4.00 for Windows). Studies were conducted by Taxolog, Inc., Tallahassee, Fla.

[2] = tested on: HT29; experiment: MTT cytotoxicity (IC50), HT29; type: cell-based; details: Homo sapiens, HT-29, 72 h, read-out: IN Vitro IC50 (nm) HT29
Procedure: as §1

[3] = tested on: A375; experiment: MTT cytotoxicity (IC50), A375; type: cell-based; details: Homo sapiens, A-375
Procedure: as §1

[4] = tested on: MALME-3; experiment: MTT cytotoxicity (IC50), MALME-3; type: cell-based; details: Homo sapiens, 72 h, read-out: IN Vitro IC50 (nm) Malme3
Procedure: as §1

[5] = tested on: OVCAR5; experiment: MTT cytotoxicity (IC50), OVCAR5; type: cell-based; details: Homo sapiens, OVCAR-5, 72 h, read-out: IN Vitro IC50 (nm) OVCAR5
Procedure: as §1

[6] = tested on: OVCAR4; experiment: MTT cytotoxicity (IC50), OVCAR4; type: cell-based; details: Homo sapiens, OVCAR-4, 72 h, read-out: IN Vitro IC50 (nm) OVCAR4
Procedure: as §1

[7] = tested on: SNB-19; experiment: MTT cytotoxicity (IC50), SNB-19; type: cell-based; details: Homo sapiens, 72 h, read-out: IN Vitro IC50 (nm) SNB19
Procedure: as §1

[8] = tested on: BxPC-3 cancer cell line; experiment: MTT cytotoxicity (IC50), BxPC-3 (Oncodesign); type: cell-based; details: Homo sapiens
Procedure: BxPC-3 cancer cell line (Source ATCC) and culture medium were purchased and provided by Oncodesign (France).
Tumor cells (5,000 cells per well) were plated in 96-well flat-bottom microtitration plates (Ref 167008, Batch 083310, Nunc, Dutscher, Brumath, France) and incubated at 37° C. for 24 hours before treatment in 100 μl of drug-free RPMI 1640 medium supplemented with 10% FBS. Tumor cell lines were incubated for 72 hours with 10 concentrations of both test substances and TXT (40 to 0.07 nM using ½ step dilutions). Experiments were repeated three times, each assay being issued from quadruplicate. Control cells were treated with the vehicle alone. At the end of treatments, the cytotoxic activity was evaluated by a MTT assay. These studies were conducted at Oncodesign, France.

[9] = tested on: HT29 human tumor xenografts; experiment: HT29 xenograft study e133 (Example 24); type: in vivo, nude mice
Procedure: […]. Control mice received the 5% E 95% L-II vehicle q4d×4. A positive reference group received i.v. therapy with compound 2, at 30 mg/kg once weekly for three weeks (q7d×3), in a vehicle of 7.5% ethanol and 7.5% Tween® 80 in 5% dextrose in water. […] The endpoint volume for tumor growth was 1,000 mm^3. […].

[10] = tested on: human BxPC-3 human pancreatic xenograft; type: in vivo; details: for antitumor activity: repeated IV injections at 5 and 7 mg/kg/inj; for T/C % values: from D33
Procedure: Method: Twenty four (24) hours after a whole body irradiation with a γ-source (7.0 Gy, Co^60, INRA, Dijon, France) 20×10^6 BxPC-3 cells in 200 μl of RPMI 1640 culture medium were subcutaneously injected in the right flank of 8 female Nude rats to generate tumor material. When the tumor size reaches approximately 1,000 mm^3, the tumors were surgically excised for implantation into recipient Nude female rats. Twenty four (24) hours after a whole body irradiation (7.0 Gy, Co^60, INRA, Dijon, France), fresh BxPC-3 tumor fragments were sc implanted in the right flank of 52 Nude female rats (1 fragment/rat) at D0 using surgical pliers and skin was stitched. The antitumor activity study was started at D21 when the mean tumor volume has reached 321.6±131.2 mm^3. Before the start of treatments, 42 tumor bearing rats out of 52 grafted were randomized into 7 groups of 6 animals.
[…]. At 7 mg/kg/inj, only two treatments were performed at D21 and D42 due to severe body weight loss.

[11] = tested on: MX1 human tumor xenografts; experiment: MX1 xenograft study e220, i.v. q4d×4 (Example 18); details: for maximum group mean BW loss: on D19
[12] = MTT, 72 h, read-out: IN Vitro IC50 (nm) DLD1
[13] = Resistance MDR1+, read-out: DLD1 Colon (Table 4, quantity not named; IC50 values as Table 2)
[14] = MTT, 72 h, read-out: IN Vitro IC50 (nm) A375
[15] = Resistance MRP9, read-out: A375 Melanoma (Table 4, quantity not named; IC50 values as Table 2)
[16] = BXPC-3, 72 h, Exp 1, MTT, 72 hours, read-out: IC50 (nM) BxPC-3
[17] = BXPC-3, 72 h, Exp 2, MTT, 72 hours, read-out: IC50 (nM) BxPC-3
[18] = BXPC-3, 72 h, Exp 3, MTT, 72 hours, read-out: IC50 (nM) BxPC-3
[19] = BXPC-3, mean of 3 experiments, read-out: IC50 Mean ± SD (nM) BxPC-3

## CCC(=O)O[C@H]1C(=O)[C@@]2(C)C([C@H](OC(=O)c3ccccc3)[C@]3(O)C[C@H](OC(=O)[C@H](O)[C@@H](NC(=O)OC4CCC4)c4cccs4)C(C)=C1C3(C)C)[C@]1(OC(C)=O)CO[C@@H]1C[C@@H]2O (stereo partly drawn) [Compound 19244]
[1]; [12]
  IC50: 1.8 nM
[1]; [13]
  IC50: 1.8 nM
[2]
  IC50: 0.6 nM
[3]; [14]
  IC50: 0.6 nM
[3]; [15]
  IC50: 0.5 nM
[4]
  IC50: 1.1 nM
[5]
  IC50: 0.6 nM
[6]
  IC50: 2.7 nM
[7]
  IC50: 0.9 nM
[8]; [16]
  IC50: 0.53 nM
[8]; [17]
  IC50: 0.66 nM
[8]; [18]
  IC50: 1.03 nM
[8]; [19]
  IC50: 0.74 ± 0.26 nM
[9]; 30 mg/kg i.v. q4d×4
  MTV: 0
  TGD: 172%
[9]; 30 mg/kg i.v. q4d×4, six mice
  55-day survivors: five
[9]; 30 mg/kg iv Q4d × 4
  Max. % BW Loss; Day: −17.3%; Day 17
[9]; 30 mg/kg iv Q4d × 4, n=6
  # Death NTR: 0
[10]; 5 mg/kg/inj
  tolerability of repeated IV treatments: well tolerated
[10]; 5 mg/kg/inj IV, repeated
  mean doubling time (DT) of tumors: 19.3 ± 6.5 days
  time to reach volume (T to V) of 1,000 mm^3: 46.0 ± 11.6 days
[10]; 5 mg/kg/inj IV, after the first injection
  MBWC D21-D26: −15.9±5.6%
[10]; 5 mg/kg/inj IV, at D53
  optimal T/C % value: 27.7%
[10]; 7 mg/kg/inj
  tolerability of repeated IV treatments: not tolerated
[10]; 7 mg/kg/inj IV
  rats out of six alive at the end of the study: two
[10]; 7 mg/kg/inj IV, after the first treatment
  MBWC D21-D26: −20.1±5.7%
[10]
  antitumor activity: marked antitumor activity
[11]; 7.5 mg/kg iv q4d × 4
  % TGD: 217.17%
  BW Nadir: −3.1% (19)
  MTV (n), Day 57: 0.00 (5) mm^3
  Median TTE: 57 days
  T-C: 39.03 days
  maximum group mean BW loss: 3.1%
[11]; 7.5 mg/kg iv q4d × 4, n=5
  CR (complete regression): 5
  NTR (non-treatment-related death): 0
  PR (partial regression): 0
  TFS (tumor-free survivor): 3
  TR (treatment-related death): 0
  transient CRs: 2
[11]; 15 mg/kg iv q4d × 4
  % TGD: 217.17%
  BW Nadir: −7.6% (19)
  MTV (n), Day 57: 0.00 (5) mm^3
  Median TTE: 57 days
  T-C: 39.03 days
  maximum group mean BW loss: 7.6%
[11]; 15 mg/kg iv q4d × 4, n=5
  CR (complete regression): 5
  NTR (non-treatment-related death): 0
  PR (partial regression): 0
  TFS (tumor-free survivor): 5
  TR (treatment-related death): 0
[11]; 30 mg/kg iv q4d × 4
  % TGD: 217.17%
  BW Nadir: −18.9% (19)
  MTV (n), Day 57: 0.00 (5) mm^3
  Median TTE: 57 days
  T-C: 39.03 days
  maximum group mean BW loss: 18.9%
[11]; 30 mg/kg iv q4d × 4, n=5
  CR (complete regression): 4
  NTR (non-treatment-related death): 0
  PR (partial regression): 1
  TFS (tumor-free survivor): 4
  TR (treatment-related death): 0

## CC(=O)O[C@@]12CO[C@@H]1C[C@H](O)[C@@]1(C)C(=O)[C@H](O)C3=C(C)[C@@H](OC(=O)[C@H](O)[C@@H](NC(=O)OC(C)(C)C)c4ccccc4)C[C@@](O)([C@@H](OC(=O)c4ccccc4)[C@H]21)C3(C)C [Docetaxel, docetaxel, reference compound]
[1]; [12]
  IC50: > 10 nM
[1]; [13]
  IC50: 20 nM
[2]
  IC50: 1.3 nM
[3]; [14]
  IC50: 2.4 nM
[3]; [15]
  IC50: 2.4 nM
[4]
  IC50: 1.8 nM
[5]
  IC50: 1.1 nM
[6]
  IC50: 1.4 nM
[7]
  IC50: 1.9 nM
[8]; [16]
  IC50: 0.93 nM
[8]; [17]
  IC50: 2.2 nM
[8]; [18]
  IC50: 0.73 nM
[8]; [19]
  IC50: 1.29 ± 0.8 nM
[9]; 30 mg/kg iv Q7d × 3, n=6
  # Death NTR: 0
  # Death TR: 0
[10]; 5 mg/kg/inj IV, 6 rats per group
  rats found dead: 2
[10]; 5 mg/kg/inj IV, 6 rats per group, listed as TXT
  rats found dead: two
[10]; 5 mg/kg/inj IV, at D60
  optimal T/C % value: 3.8%
[10]; 5 mg/kg/inj IV, at D81 (final sacrifice), 6 rats per group
  animals with complete tumor regression: one
[10]; 5 mg/kg/inj IV
  T/C % values: lower than 42%
[10]; 7 mg/kg/inj IV, 6 rats per group
  rats found dead: 2
[10]; 7 mg/kg/inj IV, 6 rats per group, listed as TXT
  rats found dead: Two
[10]; 7 mg/kg/inj IV, at D56
  optimal T/C % value: 12.3%
[10]; 7 mg/kg/inj IV
  T/C % values: lower than 42%
[10]
  antitumor activity: marked antitumor activity
[11]; 25 mg/kg iv qwk × 3
  % TGD: 217.17%
  BW Nadir: −10.9% (22)
  MTV (n), Day 57: 0.00 (5) mm^3
  Median TTE: 57 days
  T-C: 39.03 days
[11]; 25 mg/kg iv qwk × 3, n=5
  CR (complete regression): 5
  NTR (non-treatment-related death): 0
  PR (partial regression): 0
  TFS (tumor-free survivor): 5
  TR (treatment-related death): 0
